Legend:
Experiment in all cases: combination Emax (second highest fraction inhibited in the dose matrix, 72 h); higher = more inhibition; extreme values may be limits of the assay
HCC70 (Breast Carcinoma) = tested on: HCC70 (Breast Carcinoma)
Procedure, shortened: (§1)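 Bliss excess equals the observed combination effect minus the expected value EA + EB − EA·EB, where EA and EB are the effects of each agent alone. Combination Emax is the second-highest inhibition within the matrix. Inhibition was scaled from CellTiter-Glo 2.0 luminescence, with 0 set by vehicle wells and 1 by blank wells, after 72 hours of two-drug dosing of cells plated in 1536-well plates.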

[1] = tested on: CGTH-W-1 (Thyroid Gland Carcinoma)
Procedure, shortened: as §1

[2] = tested on: HCC1395 (Breast Carcinoma)
Procedure, shortened: as §1

[3] = tested on: A2780 (Ovarian Carcinoma)
Procedure, shortened: as §1

WM1552C (Melanoma) = tested on: WM1552C (Melanoma)
Procedure, shortened: as §1

[4] = tested on: UACC-812 (Breast Carcinoma)
Procedure, shortened: as §1

769-P (Kidney Carcinoma) = tested on: 769-P (Kidney Carcinoma)
Procedure, shortened: as §1

[5] = tested on: LU-165 (Small Cell Lung Carcinoma)
Procedure, shortened: as §1

[6] = tested on: NCI-H2087 (Lung Adenocarcinoma)
Procedure, shortened: as §1

EB2 (Burkitt's Lymphoma) = tested on: EB2 (Burkitt's Lymphoma)
Procedure, shortened: as §1

[7] = tested on: KYSE-220 (Esophageal Squamous Cell Carcinoma)
Procedure, shortened: as §1

[8] = tested on: JHU-022 (Oral Cavity Carcinoma)
Procedure, shortened: as §1

Row | SMILES | combination Emax (HCC70 (Breast Carcinoma)) | combination Emax [1] | combination Emax [2] | combination Emax [3] | combination Emax (WM1552C (Melanoma)) | combination Emax [4] | combination Emax (769-P (Kidney Carcinoma)) | combination Emax [5] | combination Emax [6] | combination Emax (EB2 (Burkitt's Lymphoma)) | combination Emax [7] | combination Emax [8]
1 | C[C@@H]1COCCN1c1cc(C2([S@](C)(=N)=O)CC2)nc(-c2ccnc3[nH]ccc23)n1 [AZD6738] + C1CC(C1)(C(=O)[O-])C(=O)[O-].N.N.[Pt+2] [Carboplatin] (first compound max 10 µM, 7x7, partner max 10 µM) | 0.763 | 0.302 | 0.586 | 0.81 | 0.564 | 0.381 | 0.878 | 0.41 | 0.564 | 0.76 | 0.827 | 0.513
2 | CC1(C)CCC(CN2CCN(c3ccc(C(=O)NS(=O)(=O)c4ccc(NCC5CCOCC5)c([N+](=O)[O-])c4)c(Oc4cnc5[nH]ccc5c4)c3)CC2)=C(c2ccc(Cl)cc2)C1 [Venetoclax] + CS(=O)(=O)CCNCc1ccc(-c2ccc3ncnc(Nc4ccc(OCc5cccc(F)c5)c(Cl)c4)c3c2)o1 [Lapatinib] (first compound max 1 µM, 7x7, partner max 10 µM) | 0.343 | 0.115 | 0.826 | 0.478 | 0.187 | 0.471 | 0.909 | 0.305 | 0.0976 | 0.348 | 0.917 | 0.631
3 | Cc1nc(-c2cn3c(n2)-c2ccc(-c4cnn(C(C)(C)C(N)=O)c4)cc2OCC3)n(C(C)C)n1 [Taselisib] + O=C(Nc1ccc2[nH]nc(-c3ccncc3)c2c1)[C@@H]1CCN(CC(=O)N2CCN(c3ccc(-c4ncccn4)cc3)CC2)C1 [SCH772984] (first compound max 10 µM, 7x7, partner max 5 µM) | 0.943 | 0.977 | 0.606 | 0.976 | 0.813 | 0.428 | 0.809 | 0.475 | 0.71 | 0.563 | 0.905 | 0.769
4 | C[C@@H](Nc1cc(F)cc(F)c1)c1cc(C(=O)N(C)C)cc2c(=O)cc(N3CCOCC3)oc12 [AZD8186] + CC(=O)c1c(C)c2cnc(Nc3ccc(N4CCNCC4)cn3)nc2n(C2CCCC2)c1=O [Palbociclib] (first compound max 10 µM, 7x7, partner max 10 µM) | 0.575 | 0.311 | 0.382 | 0.835 | 0.352 | 0.389 | 0.755 | 0.31 | 0.24 | 0.582 | 0.38 | 0.512
5 | O=C(c1cc(Cc2n[nH]c(=O)c3ccccc23)ccc1F)N1CCN(C(=O)C2CC2)CC1 [Olaparib] + Cc1c2c(nn1C)CSCc1cc(n(C)n1)CSc1cc(c3ccccc3c1)OCCCc1c(C(=O)O)n(C)c3c-2c(Cl)ccc13 [AZD5991] (first compound max 10 µM, 7x7, partner max 1 µM) | 0.879 | 0.0485 | 0.616 | 0.924 | 0.856 | 0.643 | 0.261 | 0.141 | 0.13 | 0.192 | 0.166 | 0.0997
6 | Cc1c2c(nn1C)CSCc1cc(n(C)n1)CSc1cc(c3ccccc3c1)OCCCc1c(C(=O)O)n(C)c3c-2c(Cl)ccc13 [AZD5991] + CC(=O)O[C@H]1C(=O)[C@@]2(C)[C@H]([C@H](OC(=O)c3ccccc3)[C@]3(O)C[C@H](OC(=O)[C@H](O)[C@@H](NC(=O)c4ccccc4)c4ccccc4)C(C)=C1C3(C)C)[C@]1(OC(C)=O)CO[C@@H]1C[C@@H]2O [Paclitaxel] (first compound max 1 µM, 7x7, partner max 3 µM) | 0.973 | 0.59 | 0.933 | 1 | 0.989 | 0.794 | 0.789 | 0.36 | 0.554 | 0.666 | 0.745 | 0.371
7 | C[C@@H](Oc1cc(-c2cnn(C3CCNCC3)c2)cnc1N)c1c(Cl)ccc(F)c1Cl [Crizotinib] + Cn1cnc2c(F)c(Nc3ccc(Br)cc3Cl)c(C(=O)NOCCO)cc21 [Selumetinib] (first compound max 10 µM, 7x7, partner max 10 µM) | 0.448 | 0.213 | 0.491 | 0.922 | 0.864 | 0.154 | 0.875 | 0.279 | 0.587 | 0.566 | 0.973 | 0.496
8 | Cc1c2c(nn1C)CSCc1cc(n(C)n1)CSc1cc(c3ccccc3c1)OCCCc1c(C(=O)O)n(C)c3c-2c(Cl)ccc13 [AZD5991] + CS(=O)(=O)CCNCc1ccc(-c2ccc3ncnc(Nc4ccc(OCc5cccc(F)c5)c(Cl)c4)c3c2)o1 [Lapatinib] (first compound max 1 µM, 7x7, partner max 10 µM) | 0.995 | 0.221 | 0.94 | 0.933 | 0.693 | 0.929 | 0.917 | 0.225 | 0.275 | 0.283 | 0.933 | 0.705
9 | O=C(c1cc(Cc2n[nH]c(=O)c3ccccc23)ccc1F)N1CCN(C(=O)C2CC2)CC1 [Olaparib] + CN(CC[C@H](CSC1=CC=CC=C1)NC2=C(C=C(C=C2)S(=O)(=O)NC(=O)C3=CC=C(C=C3)N4CCC(CC4)[C@H](C5=CC=CC=C5C6=CC=C(C=C6)Cl)O)S(=O)(=O)C(F)(F)F)CCO [AZD4320] (first compound max 10 µM, 7x7, partner max 1 µM) | 0.253 | 0.0708 | 0.407 | 0.511 | 0.484 | 0.251 | 0.678 | 0.473 | 0.413 | 0.13 | 0.267 | 0.163
10 | C=CCn1c(=O)c2cnc(Nc3ccc(N4CCN(C)CC4)cc3)nc2n1-c1cccc(C(C)(C)O)n1 [AZD1775] + Nc1ccn([C@@H]2O[C@H](CO)[C@@H](O)C2(F)F)c(=O)n1 [Gemcitabine] (first compound max 1 µM, partner max 0.3 µM) | 0.513 | 0.761 | 0.515 | 0.963 | 0.72 | 0.626 | 0.868 | 0.508 | 0.6 | 0.942 | 0.793 | 0.617
11 | C[C@@H](Oc1cc(-c2cnn(C3CCNCC3)c2)cnc1N)c1c(Cl)ccc(F)c1Cl [Crizotinib] + CC1=C(C(=CC=C1)Cl)NC(=O)C2=CN=C(S2)NC3=CC(=NC(=N3)C)N4CCN(CC4)CCO [Dasatinib] (first compound max 10 µM, 7x7, partner max 2 µM) | 0.117 | 0.961 | 0.88 | 0.882 | 0.959 | 0.181 | 0.961 | 0.469 | 0.39 | 0.591 | 0.968 | 0.648
12 | C[C@@H]1COCCN1c1cc(C2([S@](C)(=N)=O)CC2)nc(-c2ccnc3[nH]ccc23)n1 [AZD6738] + Nc1ccn([C@@H]2O[C@H](CO)[C@@H](O)C2(F)F)c(=O)n1 [Gemcitabine] (first compound max 10 µM, 7x7, partner max 0.3 µM) | 0.826 | 0.947 | 0.693 | 0.95 | 0.868 | 0.66 | 0.865 | 0.551 | 0.699 | 0.942 | 0.857 | 0.695
13 | C[C@@H](Nc1cc(F)cc(F)c1)c1cc(C(=O)N(C)C)cc2c(=O)cc(N3CCOCC3)oc12 [AZD8186] + C1CN(CCC1(C(=O)N[C@@H](CCO)C2=CC=C(C=C2)Cl)N)C3=NC=NC4=C3C=CN4 [AZD5363] (first compound max 10 µM, 7x7, partner max 10 µM) | 0.732 | 0.316 | 0.414 | 0.784 | 0.339 | 0.333 | 0.338 | 0.375 | 0.195 | 0.552 | 0.445 | 0.494
14 | CS(=O)(=O)CCNCc1ccc(-c2ccc3ncnc(Nc4ccc(OCc5cccc(F)c5)c(Cl)c4)c3c2)o1 [Lapatinib] + Cn1cnc2c(F)c(Nc3ccc(Br)cc3Cl)c(C(=O)NOCCO)cc21 [Selumetinib] (first compound max 10 µM, 7x7, partner max 10 µM) | 0.891 | 0.245 | 0.846 | 0.684 | 0.444 | 0.5 | 0.945 | 0.24 | 0.575 | 0.324 | 0.954 | 0.702
15 | Cc1c2c(nn1C)CSCc1cc(n(C)n1)CSc1cc(c3ccccc3c1)OCCCc1c(C(=O)O)n(C)c3c-2c(Cl)ccc13 [AZD5991] + Nc1ccn([C@@H]2O[C@H](CO)[C@@H](O)C2(F)F)c(=O)n1 [Gemcitabine] (first compound max 1 µM, 7x7, partner max 0.3 µM) | 0.937 | 0.688 | – | 1 | 0.899 | 0.755 | 0.701 | 0.423 | 0.546 | 0.923 | 0.724 | 0.659
16 | O=C(c1cc(Cc2n[nH]c(=O)c3ccccc23)ccc1F)N1CCN(C(=O)C2CC2)CC1 [Olaparib] + CC1(C)CCC(CN2CCN(c3ccc(C(=O)NS(=O)(=O)c4ccc(NCC5CCOCC5)c([N+](=O)[O-])c4)c(Oc4cnc5[nH]ccc5c4)c3)CC2)=C(c2ccc(Cl)cc2)C1 [Venetoclax] (first compound max 10 µM, 7x7, partner max 1 µM) | 0.141 | 0.053 | 0.242 | 0.462 | 0.319 | 0.243 | 0.284 | 0.207 | 0.176 | 0.242 | 0.155 | 0.174
17 | C=CCn1c(=O)c2cnc(Nc3ccc(N4CCN(C)CC4)cc3)nc2n1-c1cccc(C(C)(C)O)n1 [AZD1775] + CCc1c2c(nc3ccc(O)cc13)-c1cc3c(c(=O)n1C2)COC(=O)[C@]3(O)CC [SN-38] (first compound max 1 µM, partner max 0.3 µM) | 0.537 | 0.703 | 0.733 | 0.94 | 0.611 | 0.513 | 0.881 | 0.588 | 0.941 | 0.941 | 0.909 | 0.783

Source: the supplement of paper PMC11061612
